Test results taken from patent US8314126B2, “Disubstituted phenylpiperdines/piperazines as modulators of dopamine neurotransmission” (NSAB, Filial af Neurosearch Sweden AB, Sverige, priority 2004, dated 2012).

Assays:
[1] = Oral bioavailability in rat; assay type: in vivo; conditions: plasma, 12.5 umol/kg, orally 12.5 μmol/kg vs intravenously 5 μmol/kg, ratio of AUC
Method: Experiments are performed 24 hours after implantation of arterial and venous catheters. Test compound is administered orally at 12.5 μmol/kg or intravenously at 5 μmol/kg using the venous catheters, n=3 per group. Arterial blood samples are then taken during six hours at 0, 3, 9, 27, 60, 120, 180, 240, 300 and, 360 minutes after administration of the test compound. The oral bioavailability was calculated as the ratio of the AUC (Area under curve) obtained after oral administration over the AUC obtained after intravenous administration for each rat. The parameter AUC was calculated according to the following: […]
AUC: the area under the plasma concentration versus time curve from time zero to the last concentration measured (Clast), calculated by the log/linear trapezoidal method.
The levels of test compound are measured by means of liquid chromatography-mass spectrometry (LC-MS) (Hewlett-Packard 1100MSD Series). The LC-MS module includes a quaternary pump system, vacuum degasser, thermostatted autosampler, thermostatted column compartment, diode array detector and API-ES spray chamber. Data handling was performed with a HP ChemStation rev.A.06.03. system. Instrument settings:MSD mode: Selected ion monitoring (SIM) MSD polarity: Positiv Gas temp: 350° C. Drying gas: 13.0 l/min Nebulizer gas: 50 psig Capillary voltage: 5000 V Fragment or voltage: 70 V
Analytical column: Zorbax eclipse XDB-C8 (4.6*150 mm, 5 μm) at 20° C. The mobile phase was acetic acid (0.03%) (solvent A) and acetonitrile (solvent B). The flow rate of the mobile phase was 0.8 ml/min. The elution was starting at 12% of solvent B isocratic for 4.5 min, then increasing linearity to 60% over 4.5 min.
Extractions procedure: Plasma samples (0.25-0.5 ml) were diluted with water to 1 ml, and 60 pmol (100 μl) internal standard (−)-OSU6241 was added. The pH was adjusted to 11 by the addition of 25 μl saturated Na2CO3. […] The selective ion (MH^+) was monitored for each Example, and MH^+ 296 for (−)-OSU6241 ((3-[3-(ethylsulfonyl)phenyl]-1-propylpiperidine). […]

[2] = test system: levels of dopamine and norepinephrine in the cortex; test: Microdialysis in awake and freely moving rats, cortex; assay type: in vivo, rat
Method: Remeron is injected (s.c.) at time-point 0. The values depicted in the graph represent percent of control in relation to baseline values. The microdialysis was performed in awake and freely moving rats. Error-bars=SEM
Example 2 is injected (s.c.) at time-point 0. The values depicted in the graph represent percent of control in relation to baseline values. The microdialysis was performed in awake and freely moving rats. Error-bars=SEM
Male Sprague-Dawley rats weighing 220-320 g were used throughout the experiments. Before the experiment the animals were group housed, five animals in each cage, with free access to water and food. The animals were housed at least one week after arrival prior to surgery and use in the experiments. Each rat was used only once for microdialysis.
We use a modified version (Waters, Lofberg et al. 1994) of the I-shaped probe (Santiago and Westerink 1990). […] Co-ordinates were calculated relative to bregma; dorsal striatum AP +1, ML ±2.6, DV −6.3; Pf cortex, AP +3.2, 8° ML ±1.2, DV −4.0 according to (Paxinos and Watson 1986). […]
30 μl of each sample was injected into the chromatograph. […] The currents generated by the two EC detectors are converted to digital data and evaluated using Chromelion software (Dionex, Sunnyvale, Calif.) on a PC. The method sample turn over time was 4.5 min and two parallel experiments are normally analysed simultaneously on the system. […]

MK-801 pre-treated rats = test: Locomotor activity in MK-801 pre-treated rats; conditions: MK-801 0.7 mg/kg i.p. alone, recorded between 30 and 60 minutes, ± SEM
[3] = Activity of compounds of Formula 1 (test not specified); conditions: test not stated
[4] = Metabolic stability in rat liver microsomes; assay type: in vitro ADME; conditions: 15 minutes incubation at 37° C., NADPH
Method: Rat liver microsomes were isolated as described by Forlin (1980) Tox Appl Pharm. 54(3) 420-430, with minor modifications e.g. 3 mL/g liver of a 0.1 M Na/K*PO4 buffer with 0.15M KCl, pH 7.4, (buffer 1) was added before homogenisation, the homogenate was centrifuged for 20 minutes instead of 15, the supernatant was ultracentrifuged at 100.000 g instead of 105.000 g and the pellet from the ultracentrifugation was resuspended in 1 mL/g liver of 20% v/v 87% glycerol in buffer 1.
1 μL of, 0.2 or 1 mM test substance diluted in water, and 10 μL 20 mg/mL rat liver microsome were mixed with 149 μL, 37° C. buffer 1 and the reaction was started by addition of 40 μL 4.1 mg/mL NADPH. After 0 or 15 minutes incubation at 37° C. in a heating block (LAB-LINE, MULTI-BLOK Heater or lab4you, TS-100 Thermo shaker at 700 rpm) the reaction was stopped by addition of 100 μL pure acetonitrile. […] The test compound was analysed using HPLC-MS (Hewlett-Packard 1100MSD Series) with a Zorbax SB-C18 column (2.1*150 mm, 5 μm) using 0.03% formic acid and acetonitrile as mobile phase (gradient) or a Zorbax Eclipse XDB-C18 (3*75 mm, 3.5 μm) using 0.03% acetic acid and acetonitrile as mobile phase (gradient). The 15 mM turnover was calculated as the fraction of test compound eliminated after 15 minutes, expressed in percent of 0 mM levels, i.e. 100*[conc test compound at 0 mM—concentration at 15 min]/cone at 0 mM. […]

CCCN1CCC(c2cccc(S(C)(=O)=O)c2F)CC1 [Example 1, 4-[2-FLUORO-3-(METHYLSULFONYL)PHENYL]-1-PROPYLPIPERIDINE]
bioavailability [1]: ~100%

CN1CCN2c3ncccc3Cc3ccccc3C2C1 (centres unmarked) [mirtazapine, reference compound]
extracellular norepinephrine and dopamine in the cortex ([2]; 10 mg/kg s.c., cortex, FIG. 1): increase predominantly extracellullar norepinephrine and dopamine in the cortex

C[C@]12N[C@H](Cc3ccccc31)c1ccccc12 [MK-801]
Locomotor activity, MK-801 (MK-801 pre-treated rats): 51333 ± 2148 counts/30 min

CCCN1CCC(c2cccc(C(F)(F)F)c2C#N)CC1 [Example 7, 2-(1-PROPYLPIPERIDIN-4-YL)-6-(TRIFLUOROMETHYL)BENZONITRILE]
bioavailability [1]: 29%

CCCN1CCC(c2cccc(S(C)(=O)=O)c2C(F)(F)F)CC1 [4-[3-(methylsulfonyl)-2-(trifluoromethyl)phenyl]-1-propylpiperidine]
activity [3]: inactive

CCN1CCC(c2cccc(S(C)(=O)=O)c2F)CC1 [Example 2, 1-ETHYL-4-[2-FLUORO-3-(METHYLSULFONYL)PHENYL]-PIPERIDINE]
levels of dopamine and norepinephrine in the cortex ([2]; 50 μmol/kg s.c., pf. cortex, FIG. 2): elevate the levels of dopamine and norepinephrine in the cortex
bioavailability [1]: 87%
turnover at 15 minutes [4]: 1%
